“Also recorded” adds a separate entry of the source. Read-outs that look alike come from different tables or passages of the source.
Columns and labels:
[1] = tested on: human monocyte-derived DCs; assay: DC phenotype/maturation by flow cytometry (CD80, CD86, CD83); assay type: cell-based; conditions: immature DCs cultured 48 h with stimulus
Experimental: Isolation and culture of human monocyte-derived DCs: CD14^+ monocytes were enriched from peripheral blood mononuclear cells (PBMCs), using an enrichment step, and cultured in six well plates (1×10^6 cells/well) for six days with recombinant Human GM-CSF at 100 ng/ml (PeproTech, NJ) and recombinant Human IL-4 at 20 ng/ml (PeproTech, NJ). At day six, the cultures consisted uniformly of CD1a^+CD14^−, HLA-DR^+ CD11c^+ cells, which were negative for CD83, the human DC maturation marker, and expressed intermediate levels of such costimulatory molecules as CD86 (Rissoan et al., Science 283:1183-1186, 1999). On day six, the immature DCs were pulsed with E. coli LPS ([…]), flagellin ([…]), Pam3cys ([…]), or SEA ([…]) for 48 hours.
DC phenotype: The phenotype of DCs was determined by flow cytometry using a Facscalibur (BD Pharmingen, CA). Briefly, gated CD1a^+CD14^−, CD11c^+ HLA-DR^+ DCs were analyzed for the expression of CD80, CD86, CD83 and CD40. All antibodies, including the PE-labeled isotype controls were purchased from BD Pharmingen (La Jolla, Calif.).
Isolation and culture of human monocyte-derived DCs: CD14^+ monocytes were enriched from peripheral blood mononuclear cells, and cultured for 6 days with recombinant human GM-CSF at 100 ng/ml (PeproTech, NJ) plus recombinant human IL-4, at 20 ng/ml (PeproTech). At day 6, the cultures consisted uniformly of CD1a^+ CD14^−, HLA-DR^+ CD11c^+ cells, which were negative for CD83. These immature DCs were pulsed with Ec.LPS (1 μg/ml), flagellin (0.5 μg/ml), Pam3cys (20 μg/ml), or SEA (100 μg/ml) for 48 h.
DC phenotype: This was determined by flow cytometry using a Facscalibur (BD Pharmingen, CA). Briefly, gated CD1a^+CD14^−, C11c+ HLA-DR^+DCs were analyzed for the expression of CD80, CD86, CD83 and CD40 (BD Pharmingen, La Jolla, Calif.).

[2] = tested on: human monocyte-derived DCs; assay: Cytokine production by DCs (ELISA); assay type: cell-based
[3] = tested on: naïve, allogeneic CD4+ CD45RA+ CD45RO− T cells; assay: DC-T cell cultures: T-cell proliferation and Th1/Th2 cytokines; assay type: cell-based, human; conditions: for IFNγ in DC-T cell culture: DCs stimulated 48 h, then 5 days with naive CD4+ T cells
p38 MAP kinase = assay: MAP-kinase signaling in DCs: p38 phosphorylation; assay type: cell-based, human
ERK1/2 [4] = assay: MAP-kinase signaling in DCs: ERK1/2 phosphorylation; assay type: cell-based, human; conditions: 0.25, 1 and 4 h stimulation
JNK1/2 = assay: MAP-kinase signaling in DCs: JNK1/2 phosphorylation (western blot); assay type: cell-based, human
c-Fos = assay: Flow cytometric evaluation of c-Fos expression in DCs; assay type: cell-based, human; conditions: for phosphorylated c-Fos expression in DCs: flow cytometry
[5] = tested on: OVA-specific CD4+ T cells; assay: Antigen-specific CD4+ T cell responses in vivo (OT-2 adoptive transfer); set-up: species or system mice
[6] = tested on: OVA-specific CD8+ T cells; assay: Antigen-specific CD8+ T cell responses in vivo (OT-1 adoptive transfer); set-up: species or system mice; conditions: for clonal expansion of OVA-specific CD8+ T cells: i.p. with OVA257-264 50 μg, E. coli LPS 25 μg or Pam-3-cys 50 μg, day 4
[7] = tested on: splenic CD11c+ CD11b+ and CD11c+ CD11b− DC subsets; assay: Activation of splenic DC subsets in vivo
ERK1/2 [8] = assay: IL-12(p70) production by stimulated DCs with ERK1/2 inhibitor; assay type: cell-based, human; conditions: inhibitor 1 h before stimulus
[9] = very high doses, which induced high levels of CD83
[10] = mice injected with OVA323-339 + stimulus
[11] = mice injected with OVA257-264 + stimulus

S-[2,3-bis(palmitoyloxy)-(2-RS)-propyl]-N-palmitoyl-R-Cys-S-Ser-Lys4-OH [Pam3cys]
CD80 expression on DCs [1]: also weaker | CD86 expression on DCs [1]: much lower levels of CD86 | DC maturation (maturation marker CD83) [1]: weaker than that induced by E. coli LPS or flagellin; also recorded: weaker than that induced by Ec.LPS or flagellin | IL-12 induced in DCs at 10 hrs ([2]; 10 hrs, no inhibitor): did not induce any IL-12 | IL-12 induced in DCs at 24 hrs ([2]; 24 hrs, no inhibitor): 20 to 100 pg/mL | IL-10 secreted by DCs ([2]; 48 h with stimulus, ELISA): induced | TNF-α secreted by DCs ([2]; 48 h with stimulus, ELISA): much weaker levels | IL-12(p70) secreted by DCs ([2]; 48 h with stimulus, doses giving equivalent IL-6, ELISA): little or no IL-12(p70) | IL-12(p70) secreted by DCs at very high doses of stimulus [2, 9]: did not induce IL-12(p70) | IL-5 in DC-T cell culture ([3]; Example 1, FIG. 2B): high levels | IL-13 in DC-T cell culture ([3]; Example 1, FIG. 2B): 1458 pg/mL | IFNγ in DC-T cell culture ([3]; Example 1, FIG. 2B): high levels | IL-5 in DC-T cell culture ([3]; Example 2, FIG. 8b): 600 pg/mL | IL-13 in DC-T cell culture ([3]; Example 2, FIG. 8b): 600 pg/mL | IFNγ in DC-T cell culture ([3]; Example 2, FIG. 8b): approximately 2000 pg/ml | Th1 responses induced by DCs stimulated at very high doses [3, 9]: did not induce Th1 responses | phosphorylation of p38 MAP kinase in DCs (p38 MAP kinase; 0.25, 1 and 4 h stimulation, phosphorylated to total ratio, ELISA): rapid burst of p38 phosphorylation at 15 minutes, which rapidly declined to near baseline levels by 1 hour | phosphorylation of p38 MAP kinase in DCs (p38 MAP kinase; 0.25, 1 and 4 h stimulation, phosphorylated to total ratio, ELISA, listed as Pam-3-cys): enhanced phosphorylation of p38 MAP kinase | ERK1/2 phosphorylation in DCs (ERK1/2 [4]): much higher magnitude and duration of phosphorylation (which was sustained even at 4 hours); also recorded: much higher magnitude and duration of phosphorylation, (which was sustained even at 4 h) | JNK1 phosphorylation in DCs (JNK1/2; Example 2, FIG. 9c, western blot): very weak | c-Fos expression in DCs at 4 hours (c-Fos; 4 h of stimulation): maintained, even at 4 hours; also recorded: maintained even at 4 hrs | phosphorylated c-Fos expression in DCs (c-Fos): expressed at significant levels | total c-Fos expression (mean fluorescence intensity, fraction of cells) in DCs (c-Fos; peak, 2 hrs of stimulation, versus E. coli LPS or flagellin): much greater | bias of the CD4+ Th response in vivo ([5]; OT-2): preferential bias towards the Th2 pathway | ratio IFNγ: IL-4 ([5]; OT-2, FIG. 12D): 40 | ratio IFNγ: IL-5 ([5]; OT-2, FIG. 12D): 18 | ratio IFNγ: IL-13 ([5]; OT-2, FIG. 12D): 1.2 | IL-4 and IL-5 in restimulated spleen cell culture ([5]; OT-2, relative to OVA323-339+E. coli LPS, p<0.01): relatively higher levels of IL-4 and IL-5 | clonal expansion of OVA-specific CD4+ Thy-1.2+ T cells in spleen ([5]; i.p. with OVA323-339 50 μg, E. coli LPS 25 μg or Pam-3-cys 50 μg, day 4): significantly enhanced the clonal expansion; also recorded: induced clonal expansion | IFNγ in restimulated spleen cell culture [5, 10]: much lower levels of IFNγ | IL-5 in restimulated spleen cell culture [5, 10]: ~70 pg/mL | IL-4 in restimulated spleen cell culture ([5]; mice injected with OVA323-339 + stimulus, ELISA sensitivity 8 pg/ml): ~30 pg/mL | in vitro proliferative capacity of OVA-specific CD4+ T cells ([5]; spleen cells restimulated with OVA, versus OVA323-339 alone): greatly enhanced responses | bias of the CD8+ Tc response in vivo ([6]; OT-1): shift the balance towards the Tc2 pathway | ratio IFNγ: IL-4 ([6]; OT-1, FIG. 13D): 28 | ratio IFNγ: IL-5 ([6]; OT-1, FIG. 13D): 21 | ratio IFNγ: IL-13 ([6]; OT-1, FIG. 13D): 4 | clonal expansion of OVA-specific CD8+ T cells [6]: induced clonal expansion | clonal expansion of OVA-specific CD8+ T cells ([6]; listed as Pam-cys): enhanced the clonal expansion | IFNγ in restimulated spleen cell culture [6, 11]: lower levels of IFNγ | IL-4, IL-5 and IL-13 in restimulated spleen cell culture [6, 11]: relatively higher levels of IL-4, IL-5 and IL-13 | in vitro proliferative capacity of OVA-specific CD8+ T cells ([6]; spleen cells restimulated with OVA257-264, versus OVA257-264 alone): greatly enhanced responses | induction of CD86 and I-Ab on splenic DC subsets ([7]; TLR-2 deficient (TLR2−/−) mice): severely impaired; also recorded: severely reduced | CD86 and MHC class II (I-Ab) expression on splenic DC subsets ([7]; wild type mice, E. coli LPS 25 μg, Pam-3-cys 50 μg, 6 hours): equivalent up-regulation of CD86 and MHC class II; also recorded: upregulated CD86 and I-Ab expression

N#CC(=C(/N)Sc1ccccc1N)/C(C#N)=C(\N)Sc1ccccc1N [U0126]
IL-12(p70) production induced by Pam3cys when ERK1/2 is blocked (ERK1/2 [8]): significantly enhances IL-12(p70) production | IL-12(p70) production induced by SEA when ERK1/2 is blocked (ERK1/2 [8]): did not result in consistent increases in IL-12(p70)

flagellin
IL-10 secreted by DCs [2]: induced | IL-12(p70) secreted by DCs [2]: approximately 1000 pg/ml | TNF-α secreted by DCs [2]: strongly induced | type of Th response induced by stimulated DCs [3]: typical Th1 profile | phosphorylation of p38 MAP kinase in DCs (p38 MAP kinase): enhanced phosphorylation of p38 MAP kinase, which peaked at 15 minutes, and was sustained at levels well above baseline, even at 4 hours | ratio of p38:ERK phosphorylation in DCs (p38 MAP kinase): much higher ratios of p38:ERK1/2 | JNK1 phosphorylation in DCs (JNK1/2): high levels | JNK 2 phosphorylation in DCs (JNK1/2): higher levels of JNK 2 | phosphorylation of JNK1 and 2 in DCs (JNK1/2): higher levels of JNK1 and 2 | phosphorylated c-Fos expression in DCs (c-Fos): not expressed

From patent US20040259790A1, “Methods for identifying and administering agents that bias the immune response via dendritic cells” (priority 2003, published 2004)
